Measured values: BindingDB's records for doi:10.1016/j.bmc.2013.03.004 (University of Oxford, 2013)

Target: T1, Lysosomal acid glucosylceramidase (Bos taurus, UniProt Q2KHZ8)
T1 sequence (Q2KHZ8 whole entry): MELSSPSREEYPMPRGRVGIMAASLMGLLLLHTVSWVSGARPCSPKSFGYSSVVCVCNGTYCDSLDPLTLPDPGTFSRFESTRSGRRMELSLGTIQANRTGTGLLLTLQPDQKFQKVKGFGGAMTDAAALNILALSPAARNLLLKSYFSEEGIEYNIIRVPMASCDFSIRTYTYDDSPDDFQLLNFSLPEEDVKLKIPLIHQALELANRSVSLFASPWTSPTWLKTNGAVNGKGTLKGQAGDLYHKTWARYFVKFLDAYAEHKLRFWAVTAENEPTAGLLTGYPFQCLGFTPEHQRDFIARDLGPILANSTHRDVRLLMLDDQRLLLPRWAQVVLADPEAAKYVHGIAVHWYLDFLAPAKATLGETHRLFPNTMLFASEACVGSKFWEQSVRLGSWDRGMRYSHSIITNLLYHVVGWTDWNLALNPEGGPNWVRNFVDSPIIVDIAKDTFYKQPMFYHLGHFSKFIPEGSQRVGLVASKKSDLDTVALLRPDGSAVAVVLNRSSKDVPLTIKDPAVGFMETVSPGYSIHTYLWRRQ
Test: Inhibition of bovine liver beta-glucosidase

IC50: 997 µM
SMILES: OC[C@H](O)[C@@H]1NC[C@@H]1O
